Laboratory results: patent publication US20260262643A1, “HERBICIDAL BENZOXAZINES” (FMC CORPORATION, priority 2022, published 2026)

Legend:
[1] = tested on: barnyardgrass; experiment: Test C preemergence; assay type: in vivo, Echinochloa crusgalli
In short: (§1)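 Visual injury score, 0–100 (100 = complete control), taken 10 days after treatment relative to untreated controls. Pre: directed spray onto soil over sown seeds. Post: foliar spray at one- to two-leaf stage, 2–10 cm. Solvent/surfactant formulation; loam–sand soil; greenhouse.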

[2] = tested on: blackgrass; experiment: Test C preemergence; assay type: in vivo, Alopecurus myosuroides
In short: as §1

[3] = tested on: corn; experiment: Test C preemergence; assay type: in vivo, Zea mays
In short: as §1

[4] = tested on: green foxtail; experiment: Test C preemergence; assay type: in vivo, Setaria viridis
In short: as §1

[5] = tested on: kochia; experiment: Test C preemergence; assay type: in vivo, Bassia scoparia
In short: as §1

[6] = tested on: oat, wild; experiment: Test C preemergence; assay type: in vivo, Avena fatua
In short: as §1

[7] = tested on: pigweed, palmer; experiment: Test C preemergence; assay type: in vivo, Amaranthus palmeri
In short: as §1

[8] = tested on: ragweed; experiment: Test C preemergence; assay type: in vivo, Ambrosia artemisiifolia
In short: as §1

[9] = tested on: ryegrass, Italian; experiment: Test C preemergence; assay type: in vivo, Lolium multiflorum
In short: as §1

[10] = tested on: soybean; experiment: Test C preemergence; assay type: in vivo, Glycine max
In short: as §1

[11] = tested on: wheat; experiment: Test C preemergence; assay type: in vivo, Triticum aestivum
In short: as §1

[12] = tested on: barnyardgrass; experiment: Test C postemergence; assay type: in vivo, Echinochloa crusgalli; conditions: 10 days, 0 to 100 scale (0 no effect, 100 complete control)
In short: as §1

[13] = tested on: blackgrass; experiment: Test C postemergence; assay type: in vivo, Alopecurus myosuroides; conditions: 10 days, 0 to 100 scale (0 no effect, 100 complete control)
In short: as §1

[14] = tested on: corn; experiment: Test C postemergence; assay type: in vivo, Zea mays; conditions: 10 days, 0 to 100 scale (0 no effect, 100 complete control)
In short: as §1

[15] = tested on: green foxtail; experiment: Test C postemergence; assay type: in vivo, Setaria viridis; conditions: 10 days, 0 to 100 scale (0 no effect, 100 complete control)
In short: as §1

[16] = tested on: kochia; experiment: Test C postemergence; assay type: in vivo, Bassia scoparia; conditions: 10 days, 0 to 100 scale (0 no effect, 100 complete control)
In short: as §1

[17] = tested on: oat, wild; experiment: Test C postemergence; assay type: in vivo, Avena fatua; conditions: 10 days, 0 to 100 scale (0 no effect, 100 complete control)
In short: as §1

[18] = tested on: pigweed, palmer; experiment: Test C postemergence; assay type: in vivo, Amaranthus palmeri; conditions: 10 days, 0 to 100 scale (0 no effect, 100 complete control)
In short: as §1

[19] = tested on: ragweed; experiment: Test C postemergence; assay type: in vivo, Ambrosia artemisiifolia; conditions: 10 days, 0 to 100 scale (0 no effect, 100 complete control)
In short: as §1

[20] = tested on: ryegrass, Italian; experiment: Test C postemergence; assay type: in vivo, Lolium multiflorum; conditions: 10 days, 0 to 100 scale (0 no effect, 100 complete control)
In short: as §1

[21] = tested on: soybean; experiment: Test C postemergence; assay type: in vivo, Glycine max; conditions: 10 days, 0 to 100 scale (0 no effect, 100 complete control)
In short: as §1

[22] = tested on: wheat; experiment: Test C postemergence; assay type: in vivo, Triticum aestivum; conditions: 10 days, 0 to 100 scale (0 no effect, 100 complete control)
In short: as §1

[23] = tested on: galium; experiment: Test C postemergence; assay type: in vivo, Galium aparine; conditions: 10 days, 0 to 100 scale (0 no effect, 100 complete control)
In short: as §1

[24] = tested on: horseweed; experiment: Test C postemergence; assay type: in vivo, Erigeron canadensis; conditions: 10 days, 0 to 100 scale (0 no effect, 100 complete control)
In short: as §1

[25] = tested on: barnyardgrass; experiment: Test D flooded paddy test; assay type: in vivo, Echinochloa crus-galli; conditions: 250 g ai/ha, applied to paddy water, visual rating after 13 to 14 days, scale 0 to 100 (0 no effect, 100 complete control)
In short: (§2)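 Post-flood water application at the 2-leaf stage; 3 cm flood depth kept constant; visual control rating 0–100 after 13–14 days greenhouse growth.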

[26] = tested on: ducksalad; experiment: Test D flooded paddy test; assay type: in vivo, Heteranthera limosa; conditions: 250 g ai/ha, applied to paddy water, visual rating after 13 to 14 days, scale 0 to 100 (0 no effect, 100 complete control)
In short: as §2

[27] = tested on: rice; experiment: Test D flooded paddy test; assay type: in vivo, Oryza sativa; conditions: 250 g ai/ha, applied to paddy water, visual rating after 13 to 14 days, scale 0 to 100 (0 no effect, 100 complete control)
In short: as §2

[28] = tested on: sedge, umbrella; experiment: Test D flooded paddy test; assay type: in vivo, Cyperus difformis; conditions: 250 g ai/ha, applied to paddy water, visual rating after 13 to 14 days, scale 0 to 100 (0 no effect, 100 complete control)
In short: as §2

[29] = 500 g ai/ha, preemergence, 0 to 100 scale (0 no effect, 100 complete control)
[30] = Preemergence, 125 g ai/ha, 0 to 100 scale, 0 no effect, 100 complete control

Cc1cccc2c1O[C@@H](C)CN2C(=O)c1cc(-n2cnc(C(C)C)n2)cc2c1CCO2 [Compound 392]
Barnyardgrass plant response rating [1, 29]: 100 | Plant response rating, Barnyardgrass [1, 30]: 90 | Blackgrass plant response rating [2, 29]: 80 | Plant response rating, Blackgrass [2, 30]: 70 | Corn plant response rating [3, 29]: 70 | Plant response rating, Corn [3, 30]: 30 | Foxtail, Green plant response rating [4, 29]: 100 | Plant response rating, Foxtail, Green [4, 30]: 100 | Kochia plant response rating [5, 29]: 90 | Plant response rating, Kochia [5, 30]: 90 | Oat, Wild plant response rating [6, 29]: 90 | Plant response rating, Oat, Wild [6, 30]: 50 | Pigweed, Palmer plant response rating [7, 29]: 100 | Plant response rating, Pigweed, Palmer [7, 30]: 100 | Ragweed plant response rating [8, 29]: 80 | Plant response rating, Ragweed [8, 30]: 80 | Ryegrass, Italian plant response rating [9, 29]: 100 | Plant response rating, Ryegrass, Italian [9, 30]: 90 | Soybean plant response rating [10, 29]: 100 | Plant response rating, Soybean [10, 30]: 90 | Wheat plant response rating [11, 29]: 60 | Plant response rating, Wheat [11, 30]: 20 | Plant response rating, Barnyardgrass ([12]; 500 g ai/ha, postemergence): 80 | Plant response rating, Barnyardgrass ([12]; Postemergence, 125 g ai/ha): 50 | Plant response rating, Blackgrass ([13]; 500 g ai/ha, postemergence): 90 | Plant response rating, Blackgrass ([13]; Postemergence, 125 g ai/ha): 80 | Plant response rating, Corn ([14]; 500 g ai/ha, postemergence): 80 | Plant response rating, Corn ([14]; Postemergence, 125 g ai/ha): 30 | Plant response rating, Foxtail, Green ([15]; 500 g ai/ha, postemergence): 90 | Plant response rating, Foxtail, Green ([15]; Postemergence, 125 g ai/ha): 60 | Plant response rating, Kochia ([16]; 500 g ai/ha, postemergence): 90 | Plant response rating, Kochia ([16]; Postemergence, 125 g ai/ha): 90 | Plant response rating, Oat, Wild ([17]; 500 g ai/ha, postemergence): 90 | Plant response rating, Oat, Wild ([17]; Postemergence, 125 g ai/ha): 70 | Plant response rating, Pigweed, Palmer ([18]; 500 g ai/ha, postemergence): 100 | Plant response rating, Pigweed, Palmer ([18]; Postemergence, 125 g ai/ha): 100 | Plant response rating, Ragweed ([19]; 500 g ai/ha, postemergence): 90 | Plant response rating, Ragweed ([19]; Postemergence, 125 g ai/ha): 90 | Plant response rating, Ryegrass, Italian ([20]; 500 g ai/ha, postemergence): 100 | Plant response rating, Ryegrass, Italian ([20]; Postemergence, 125 g ai/ha): 80 | Plant response rating, Soybean ([21]; 500 g ai/ha, postemergence): 100 | Plant response rating, Soybean ([21]; Postemergence, 125 g ai/ha): 100 | Plant response rating, Wheat ([22]; 500 g ai/ha, postemergence): 60 | Plant response rating, Wheat ([22]; Postemergence, 125 g ai/ha): 50 | Plant response rating, Galium ([23]; 500 g ai/ha, postemergence): 100 | Plant response rating, Galium ([23]; Postemergence, 125 g ai/ha): 100 | Plant response rating, Horseweed ([24]; 500 g ai/ha, postemergence): 90 | Plant response rating, Horseweed ([24]; Postemergence, 125 g ai/ha): 60 | Plant response rating, Barnyardgrass (Flood) [25]: 40 | Plant response rating, Ducksalad (Flood) [26]: 65 | Plant response rating, Rice (Flood) [27]: 0 | Plant response rating, Sedge, Umbrella (Flood) [28]: 65
